Results: patent EP3046573B1, “AMYLIN ANALOGUES” (Zealand Pharma A/S, priority 2013, dated 2015)
Read-outs that look alike come from different tables or passages of the source. Numbered stars: 1 amine (or outer) side, 2 acyl side, 3 side chain; on linkers, the order of the positions; unused ones are H or OH. Bridge positions count the residues as written; N and C are the ends. Square brackets hold non-standard residues; d marks the D form. Peptide text beside a SMILES is read from it. * marks the point of attachment. C20 diacid = O=C(O)CCCCCCCCCCCCCCCCCCC(=O)*; γGlu = O=C(O)[C@H](CCC(=O)[*:2])N[*:1]; NMeI = CC[C@H](C)[C@H](NC)C(=O)O; Sar = CNCC(=O)O

Key:
[1] = target: T1, human calcitonin receptor (hCTR2) (Homo sapiens, UniProt P30988); assay: hCTR2 assay: induction of cAMP (AlphaScreen cAMP Assay kit) in COS7 cells expressing hCTR2; type: cell-based
T1 construct: expressed in transfected cells
T1 sequence (P30988 25-474): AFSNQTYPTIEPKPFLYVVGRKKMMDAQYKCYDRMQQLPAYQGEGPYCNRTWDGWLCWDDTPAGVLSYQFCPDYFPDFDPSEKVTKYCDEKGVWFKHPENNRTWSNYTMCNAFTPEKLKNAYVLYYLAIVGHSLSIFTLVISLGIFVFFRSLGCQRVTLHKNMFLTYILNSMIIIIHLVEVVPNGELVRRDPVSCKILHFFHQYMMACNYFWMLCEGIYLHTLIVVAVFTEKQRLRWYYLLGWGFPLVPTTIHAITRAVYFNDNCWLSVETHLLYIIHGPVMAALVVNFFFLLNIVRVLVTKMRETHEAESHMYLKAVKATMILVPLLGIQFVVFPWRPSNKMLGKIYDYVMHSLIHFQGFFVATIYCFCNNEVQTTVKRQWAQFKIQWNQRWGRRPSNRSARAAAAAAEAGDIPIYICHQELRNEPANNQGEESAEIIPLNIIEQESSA
How it was run: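 cAMP read-out by AlphaScreen after cell lysis; EC50 and % efficacy vs pramlintide from 4-parameter logistic fitting. Agonist stimulation: hCTR2-COS7 stable cells, 15 min, 37° C, 100 µM IBMX, 0.1% casein, Tyrode/HEPES pH 7.4.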

[2] = target: T2, human amylin receptor 3 (hAMYR3) consisting of hCTR2 co-expressed with human Receptor Activity Modifying Protein 3 (hRAMP3) (Homo sapiens, UniProt O60896+P30988); assay: hAMYR3 assay: induction of cAMP (AlphaScreen cAMP Assay kit) in COS7 cells expressing hAMYR3; type: cell-based
T2 construct: expressed in transfected cells
T2 sequence (P30988 25-474): T1 sequence (P30988 25-474)
T2 sequence (O60896 24-148 partner): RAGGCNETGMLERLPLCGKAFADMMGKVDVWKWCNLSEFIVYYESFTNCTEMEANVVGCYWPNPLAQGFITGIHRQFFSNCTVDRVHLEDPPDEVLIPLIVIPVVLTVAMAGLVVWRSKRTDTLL
How it was run: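 cAMP accumulation read by AlphaScreen in lysates of RAMP-naive COS7 cells stably transfected with hCTR2 plus hRAMP3. Cells exposed to peptide dilutions for 15 min, 37° C, with 100 µM IBMX; 4PL fitting gave EC50 and efficacy relative to pramlintide.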

[3] = Solubility assessment (turbidity absorbance at 325 nm); type: physicochemical; conditions: stock 2 mg/ml diluted 1:1, ambient temperature (typically 25°C), n=1; for Solubility, Acetate buffer pH 4: 100 mM acetate buffer pH 4.0; for Solubility, Acetate buffer pH 5: 100 mM acetate buffer pH 5.0; for Solubility, Histidine buffer pH 6: 100 mM histidine buffer pH 6.0; for Solubility, Histidine buffer pH 7: 100 mM histidine buffer pH 7.0; for Solubility, Phosphate buffer pH 6: 100 mM phosphate buffer pH 6.0; for Solubility, Phosphate buffer pH 7: 100 mM phosphate buffer pH 7.0; for Solubility, Phosphate buffer pH 7.5: 100 mM phosphate buffer pH7.5
How it was run: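 Turbidity read as absorbance at 325 nm (also 280 nm), single samples at ambient temperature (typically 25°C); ≤ 0.02 units counts as ≥ 1 mg/ml soluble. Samples made by 1:1 dilution of a 2 mg/ml acidic stock into 100 mM acetate, histidine or phosphate buffers, pH 4.0–7.5.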

[4] = cAMP induction in COS7 cells expressing hCTR2, average of a minimum of 3 determinations, read-out: hCTR2 EC50
[5] = cAMP induction in COS7 cells expressing hAMYR3, average of a minimum of 3 determinations, read-out: hAMY R3 EC50

CC[C@H](C)[C@@H](C(=O)N[C@@H](CC(C)C)C(=O)N[C@@H](CO)C(=O)N[C@@H](CO)C(=O)N[C@H](C(=O)N[C@@H](CC(N)=O)C(=O)N[C@H](C(=O)NCC(=O)N[C@@H](CO)C(=O)N[C@@H](CC(N)=O)C(=O)N[C@H](C(=O)N1CCC[C@H]1C(=O)NC)[C@@H](C)O)C(C)C)[C@@H](C)O)N(C)C(=O)CN(C)C(=O)[C@H](Cc1ccccc1)NC(=O)[C@H](CC(N)=O)NC(=O)[C@H](CC(N)=O)NC(=O)[C@H](CO)NC(=O)[C@H](CO)NC(=O)[C@H](CCCNC(=N)N)NC(=O)[C@H](Cc1c[nH]cn1)NC(=O)[C@H](CC(C)C)NC(=O)[C@H](Cc1ccccc1)NC(=O)[C@H](CCC(=O)O)NC(=O)[C@H](C)NC(=O)[C@H](CC(C)C)NC(=O)[C@H](CCCNC(=N)N)NC(=O)[C@H](CCC(N)=O)NC(=O)[C@@H](NC(=O)[C@H](C)NC(=O)[C@@H]1CSSC[C@H](NC(=O)[C@H](CCCNC(=N)N)NC(=O)CC[C@H](NC(=O)CCCCCCCCCCCCCCCCCCC(=O)O)C(=O)O)C(=O)N[C@@H](CC(N)=O)C(=O)N[C@@H]([C@@H](C)O)C(=O)N[C@@H](C)C(=O)N[C@@H]([C@@H](C)O)C(=O)N1)[C@@H](C)O [Compound 153, [19CD]-isoGlu-RC()NTATC()ATQRLAEFLHRSSNNF-Gly(Me)-Ile(Me)-LSSTNVGSNTP-NHMe] ({C20 diacid-γGlu}-RCNTATCATQRLAEFLHRSSNNF[Sar][NMeI]LSSTNVGSNTP-NHMe; disulfide 2-7)
EC50 [1, 4]: 0.73 nM
EC50 [2, 5]: 6.1 nM
Solubility, Acetate buffer pH 4 [3]: SS (SS indicates solubility ≥ 1mg/ml)
Solubility, Acetate buffer pH 5 [3]: SS (SS indicates solubility ≥ 1mg/ml)
Solubility, Histidine buffer pH 6 [3]: II (II indicates solubility ≤ 1 mg/ml)
Solubility, Histidine buffer pH 7 [3]: SS (SS indicates solubility ≥ 1mg/ml)
Solubility, Phosphate buffer pH 6 [3]: SS (SS indicates solubility ≥ 1mg/ml)
Solubility, Phosphate buffer pH 7 [3]: SS (SS indicates solubility ≥ 1mg/ml)
Solubility, Phosphate buffer pH 7.5 [3]: SS (SS indicates solubility ≥ 1mg/ml)

CC[C@H](C)[C@@H](C(=O)N[C@@H](CC(C)C)C(=O)N[C@@H](CO)C(=O)N[C@@H](CO)C(=O)N[C@H](C(=O)N[C@@H](CC(N)=O)C(=O)N[C@H](C(=O)NCC(=O)N[C@@H](CO)C(=O)N[C@@H](CC(N)=O)C(=O)N[C@H](C(=O)N[C@@H](CC(C)C)C(N)=O)[C@@H](C)O)C(C)C)[C@@H](C)O)N(C)C(=O)[C@H](C)NC(=O)CN(C)C(=O)[C@H](Cc1ccccc1)NC(=O)[C@H](CC(N)=O)NC(=O)[C@H](CC(N)=O)NC(=O)[C@H](CO)NC(=O)[C@H](CO)NC(=O)[C@H](CCCNC(=N)N)NC(=O)[C@H](Cc1c[nH]cn1)NC(=O)[C@H](CC(C)C)NC(=O)[C@H](Cc1ccccc1)NC(=O)[C@H](CCC(=O)O)NC(=O)[C@H](C)NC(=O)[C@H](CC(C)C)NC(=O)[C@H](CCCNC(=N)N)NC(=O)[C@H](CCC(N)=O)NC(=O)[C@@H](NC(=O)[C@H](C)NC(=O)[C@@H]1CSSC[C@H](NC(=O)[C@H](CCCNC(=N)N)NC(=O)CC[C@H](NC(=O)CCCCCCCCCCCCCCCCCCC(=O)O)C(=O)O)C(=O)N[C@@H](CC(N)=O)C(=O)N[C@@H]([C@@H](C)O)C(=O)N[C@@H](C)C(=O)N[C@@H]([C@@H](C)O)C(=O)N1)[C@@H](C)O [Compound 100, [19CD]-isoGlu-RC()NTATC()ATQRLAEFLHRSSNNF-Gly(Me)-A-Ile(Me)-LSSTNVGSNTL-NH2] ({C20 diacid-γGlu}-RCNTATCATQRLAEFLHRSSNNF[Sar]A[NMeI]LSSTNVGSNTL-NH2; disulfide 2-7)
EC50 [1]: 0.37 nM
EC50 [2]: 6.3 nM
Solubility, Acetate buffer pH 4 [3]: SS (SS indicates solubility ≥ 1mg/ml)
Solubility, Acetate buffer pH 5 [3]: SS (SS indicates solubility ≥ 1mg/ml)
Solubility, Histidine buffer pH 6 [3]: SS (SS indicates solubility ≥ 1mg/ml)
Solubility, Histidine buffer pH 7 [3]: SS (SS indicates solubility ≥ 1mg/ml)
Solubility, Phosphate buffer pH 6 [3]: II (II indicates solubility ≤ 1 mg/ml)
Solubility, Phosphate buffer pH 7 [3]: SS (SS indicates solubility ≥ 1mg/ml)
Solubility, Phosphate buffer pH 7.5 [3]: SS (SS indicates solubility ≥ 1mg/ml)

CC[C@H](C)[C@@H](C(=O)N[C@@H](CC(C)C)C(=O)N[C@@H](CO)C(=O)N[C@@H](CO)C(=O)N[C@H](C(=O)N[C@@H](CC(N)=O)C(=O)N[C@H](C(=O)NCC(=O)N[C@@H](CO)C(=O)N[C@@H](CC(N)=O)C(=O)N[C@H](C(=O)NCC(N)=O)[C@@H](C)O)C(C)C)[C@@H](C)O)N(C)C(=O)[C@H](C)NC(=O)CN(C)C(=O)[C@H](Cc1ccccc1)NC(=O)[C@H](CC(N)=O)NC(=O)[C@H](CC(N)=O)NC(=O)[C@H](CO)NC(=O)[C@H](CO)NC(=O)[C@H](CCCNC(=N)N)NC(=O)[C@H](Cc1c[nH]cn1)NC(=O)[C@H](CC(C)C)NC(=O)[C@H](Cc1ccccc1)NC(=O)[C@H](CCC(=O)O)NC(=O)[C@H](C)NC(=O)[C@H](CC(C)C)NC(=O)[C@H](CCCNC(=N)N)NC(=O)[C@H](CCC(N)=O)NC(=O)[C@@H](NC(=O)[C@H](C)NC(=O)[C@@H]1CSSC[C@H](NC(=O)[C@H](CCCNC(=N)N)NC(=O)CC[C@H](NC(=O)CCCCCCCCCCCCCCCCCCC(=O)O)C(=O)O)C(=O)N[C@@H](CC(N)=O)C(=O)N[C@@H]([C@@H](C)O)C(=O)N[C@@H](C)C(=O)N[C@@H]([C@@H](C)O)C(=O)N1)[C@@H](C)O [Compound 96, [19CD]-isoGlu-RC()NTATC()ATQRLAEFLHRSSNNF-Gly(Me)-A-Ile(Me)-LSSTNVGSNTG-NH2] ({C20 diacid-γGlu}-RCNTATCATQRLAEFLHRSSNNF[Sar]A[NMeI]LSSTNVGSNTG-NH2; disulfide 2-7)
EC50 [1]: 0.34 nM
EC50 [2]: 5.6 nM
Solubility, Acetate buffer pH 4 [3]: SS (SS indicates solubility ≥ 1mg/ml)
Solubility, Acetate buffer pH 5 [3]: SS (SS indicates solubility ≥ 1mg/ml)
Solubility, Histidine buffer pH 6 [3]: SS (SS indicates solubility ≥ 1mg/ml)
Solubility, Histidine buffer pH 7 [3]: SS (SS indicates solubility ≥ 1mg/ml)
Solubility, Phosphate buffer pH 6 [3]: SS (SS indicates solubility ≥ 1mg/ml)
Solubility, Phosphate buffer pH 7 [3]: SS (SS indicates solubility ≥ 1mg/ml)
Solubility, Phosphate buffer pH 7.5 [3]: SS (SS indicates solubility ≥ 1mg/ml)

CC[C@H](C)[C@@H](C(=O)N[C@@H](CC(C)C)C(=O)N[C@@H](CO)C(=O)N[C@@H](CO)C(=O)N[C@H](C(=O)N[C@@H](CCC(=O)O)C(=O)N[C@H](C(=O)NCC(=O)N[C@@H](CO)C(=O)N[C@@H](CCC(=O)O)C(=O)N[C@H](C(=O)N1CCC[C@H]1C(N)=O)[C@@H](C)O)C(C)C)[C@@H](C)O)N(C)C(=O)[C@H](C)NC(=O)CN(C)C(=O)[C@H](Cc1ccccc1)NC(=O)[C@H](CO)NC(=O)[C@H](CO)NC(=O)[C@H](CO)NC(=O)[C@H](CO)NC(=O)[C@H](CCCNC(=N)N)NC(=O)[C@H](Cc1c[nH]cn1)NC(=O)[C@H](CC(C)C)NC(=O)[C@H](Cc1ccccc1)NC(=O)[C@H](CCC(=O)O)NC(=O)[C@H](C)NC(=O)[C@H](CC(C)C)NC(=O)[C@H](CCCNC(=N)N)NC(=O)[C@@H]1CCCN1C(=O)[C@@H](NC(=O)[C@H](C)NC(=O)[C@@H]1CSSC[C@H](NC(=O)[C@H](CCCNC(=N)N)NC(=O)CC[C@H](NC(=O)CCCCCCCCCCCCCCCCCCC(=O)O)C(=O)O)C(=O)N2CCC[C@H]2C(=O)N[C@@H]([C@@H](C)O)C(=O)N[C@@H](C)C(=O)N[C@@H]([C@@H](C)O)C(=O)N1)[C@@H](C)O [Compound 143, [19CD]-isoGlu-RC()PTATC()ATPRLAEFLHRSSSSF-Gly(Me)-A-Ile(Me)-LSSTEVGSETP-NH2] ({C20 diacid-γGlu}-RCPTATCATPRLAEFLHRSSSSF[Sar]A[NMeI]LSSTEVGSETP-NH2; disulfide 2-7)
EC50 [1, 4]: 0.26 nM
EC50 [2, 5]: 0.44 nM
Solubility, Acetate buffer pH 4 [3]: SS (SS indicates solubility ≥ 1mg/ml)
Solubility, Acetate buffer pH 5 [3]: SS (SS indicates solubility ≥ 1mg/ml)
Solubility, Histidine buffer pH 6 [3]: SS (SS indicates solubility ≥ 1mg/ml)
Solubility, Histidine buffer pH 7 [3]: SS (SS indicates solubility ≥ 1mg/ml)
Solubility, Phosphate buffer pH 6 [3]: SS (SS indicates solubility ≥ 1mg/ml)
Solubility, Phosphate buffer pH 7 [3]: SS (SS indicates solubility ≥ 1mg/ml)
Solubility, Phosphate buffer pH 7.5 [3]: SS (SS indicates solubility ≥ 1mg/ml)
